Experimental data reported in ChEMBL document CHEMBL1128056, “Methanodibenzosuberylpiperazines as potent multidrug resistance reversal agents” (Bioorg Med Chem Lett, 1995).
pEC50, pIC50: −log10 of the molar value.

system: CHRC5 cell line; test: Compound was tested for its cytotoxic effect on CHRC5 Chinese hamster cells at a dose of 1 uM; not cytotoxic; assay type: functional, cell-based; conditions: Cricetulus griseus

SMILES | Activity
OC(COc1cccc2ncccc12)CN1CCN(C2c3ccccc3C3C(c4ccccc42)C3(F)F)CC1 (stereo in doubt; form 1) [listing 1 of 2 here] | Non-toxic
OC(COc1cccc2ncccc12)CN1CCN(C2c3ccccc3C3C(c4ccccc42)C3(F)F)CC1 (stereo in doubt; form 2) [listing 1 of 2 here] | Non-toxic
OC(COc1cccc2ncccc12)CN1CCN(C2c3ccccc3C3C(c4ccccc42)C3(F)F)CC1 (stereo in doubt; form 5) [listing 1 of 2 here] | Non-toxic

biological target: not listed separately; test: Binding affinity to glycoprotein p was tested; conditions: not given

pIC50 | SMILES
7.40 | OC(COc1cccc2ncccc12)CN1CCN(C2c3ccccc3C3C(c4ccccc42)C3(F)F)CC1 (stereo in doubt; form 5) [listing 2 of 2 here]

system: not listed separately; test: Half-life at pH 2.0 and 37 degree C; assay type: ADME; conditions: buffer

half-life | SMILES
> 72 h | OC(COc1cccc2ncccc12)CN1CCN(C2c3ccccc3C3C(c4ccccc42)C3(F)F)CC1 (stereo in doubt; form 1) [listing 2 of 2 here]
> 72 h | OC(COc1cccc2ncccc12)CN1CCN(C2c3ccccc3C3C(c4ccccc42)C3(Cl)Cl)CC1 (stereo in doubt; form 1)

system: CHRC5 cell line; test: Tested for in vitro proliferation and viability of multidrug resistant CHRC5 Chinese hamster cells in the presence and absence of doxorubicin in a modified MTT assay; assay type: functional, cell-based, Cricetulus griseus; conditions: Cricetulus griseus, CHRC5

SMILES | pEC50
OC(COc1cccc2ncccc12)CN1CCN(C2c3ccccc3CCc3ccccc32)CC1 (stereo not drawn) | 7.19
OC(COc1cccc2ncccc12)CN1CCN(C2c3ccccc3C3CC3c3ccccc32)CC1 (stereo not drawn) | 7.40
COc1ccc(CCN(C)CCCC(C#N)(c2ccc(OC)c(OC)c2)C(C)C)cc1OC (stereo not drawn) | 5.92
OC(COc1cccc2ncccc12)CN1CCN(C2c3ccccc3C3C(c4ccccc42)C3(Cl)Cl)CC1 (stereo in doubt; form 1) | 7.00

same assay, conditions: chrc5

SMILES | pEC50
OC(COc1cccc2ncccc12)CN1CCN(C2c3ccccc3C3C(c4ccccc42)C3(Cl)Cl)CC1 (racemic) | 7.15
OC(COc1cccc2ncccc12)CN1CCN(C2c3ccccc3C3C(c4ccccc42)C3(Cl)Cl)CC1 (stereo in doubt; form 2) | 7.26
OC(COc1cccc2ncccc12)CN1CCN(C2c3ccccc3C3C(c4ccccc42)C3(F)F)CC1 (stereo in doubt; form 3) | 6.74
OC(COc1cccc2ncccc12)CN1CCN(C2c3ccccc3C3C(c4ccccc42)C3(F)F)CC1 (stereo in doubt; form 5) [listing 2 of 2 here] | 7.68
OC(COc1cccc2ncccc12)CN1CCN(C2c3ccccc3C3C(c4ccccc42)C3(F)F)CC1 (stereo in doubt; form 1) [listing 2 of 2 here] | 7.30
OC(COc1cccc2ncccc12)CN1CCN(C2c3ccccc3C3C(c4ccccc42)C3(F)F)CC1 (single isomer, unassigned) | 6.72
OC(COc1cccc2ncccc12)CN1CCN(C2c3ccccc3C3C(c4ccccc42)C3(F)F)CC1 (stereo in doubt; form 4) | 6.70
OC(COc1cccc2ncccc12)CN1CCN(C2c3ccccc3C3C(c4ccccc42)C3(F)F)CC1 (stereo in doubt; form 2) [listing 2 of 2 here] | 7.22
